Assay results from patent US20090143279A1 (priority 2007, published 2009).
Read-outs that look alike come from different tables or passages of the source.

What was measured:
[1] = test system: mitochondrial membrane potential; type: cell-based, mouse; settings: for ΔΨm (composite Z-score): normalized score vs mock-treated (DMSO) wells
reactive oxygen species = type: cell-based, mouse; settings: for ROS (composite Z-score): normalized score vs mock-treated (DMSO) wells
OXPHOS gene expression = type: cell-based, mouse; settings: for GE-HTS (composite Z-score): normalized score vs mock-treated (DMSO) wells
nuOXPHOS transcripts = type: cell-based, mouse; settings: for nucOX (composite Z-score): normalized score vs mock-treated (DMSO) wells
mtOXPHOS transcripts = type: cell-based, mouse; settings: for mitoOX (composite Z-score): normalized score vs mock-treated (DMSO) wells
cytochrome c = type: cell-based, mouse; settings: for cyt c (composite Z-score): normalized score vs mock-treated (DMSO) wells
C2C12 myotubes = settings: for Viability (composite Z-score): normalized score vs mock-treated (DMSO) wells
[2] = test system: cellular dehydrogenase activity; settings: for MTT (composite Z-score): normalized score vs mock-treated (DMSO) wells
[3] = 20 μM, composite Z-score vs DMSO
[4] = normalized composite Z-score vs mock-treated (DMSO) wells, Conc 20 μM
[5] = composite Z-score vs DMSO, Conc 20 μM
[6] = composite Z-score vs mock-treated (DMSO) wells, Conc 20 μM
[7] = composite Z-score vs mock-treated (DMSO) wells, concentration of each compound in μM

With CC(=O)Oc1cccc(C(=O)O)c1OC(C)=O [dipyrocetyl] the “ΔΨm (composite Z-score)” value ([1]; Conc 20 μM) was −0.363, the “ROS (composite Z-score)” value (reactive oxygen species; Conc 20 μM) was 1.260 and the “GE-HTS (composite Z-score)” value (OXPHOS gene expression; Conc 20 μM) was −0.311. For the same compound, the “nucOX (composite Z-score)” value (nuOXPHOS transcripts; Conc 20 μM) was −0.242, the “mitoOX (composite Z-score)” value (mtOXPHOS transcripts; Conc 20 μM) was −0.341 and the “cyt c (composite Z-score)” value (cytochrome c; Conc 20 μM) was 0.865. The “Viability (composite Z-score)” value (C2C12 myotubes; Conc 20 μM) was 0.452 and the “MTT (composite Z-score)” value ([2]; Conc 20 μM) was −1.355.

CC(C)(O)[C@@H]1[C@H]2OC(=O)[C@@H]1[C@]1(O)C[C@H]3O[C@]34C(=O)O[C@H]2[C@]14C [picrotin] showed a ΔΨm [1, 3] of −0.167, an ROS (reactive oxygen species; [3]) of 0.917 and a GE-HTS (OXPHOS gene expression; [3]) of 0.253. For the same compound, the nucOX (nuOXPHOS transcripts; [3]) was 0.404, the mitoOX (mtOXPHOS transcripts; [3]) was −0.167 and the cyt c (cytochrome c; [3]) was 0.184. The Viability (C2C12 myotubes; [3]) was −0.278 and the MTT [2, 3] was −1.155.

With C[C@@H]1CC[C@H]2[C@](C)(CO)[C@@H](O)CC[C@]2(C)[C@@]12CC[C@@](CO)(CCO)O2 [lagochilin] the “ΔΨm (composite Z-score)” value ([1]; Conc 20 μM) was 0.277, the “ROS (composite Z-score)” value (reactive oxygen species; Conc 20 μM) was 0.962 and the “GE-HTS (composite Z-score)” value (OXPHOS gene expression; Conc 20 μM) was 0.002. The “nucOX (composite Z-score)” value (nuOXPHOS transcripts; Conc 20 μM) was −0.036, the “mitoOX (composite Z-score)” value (mtOXPHOS transcripts; Conc 20 μM) was 0.128 and the “cyt c (composite Z-score)” value (cytochrome c; Conc 20 μM) was −0.862. The “Viability (composite Z-score)” value (C2C12 myotubes; Conc 20 μM) was 0.043 and the “MTT (composite Z-score)” value ([2]; Conc 20 μM) was −0.238.

COc1c2c(cc3occ(-c4ccc5c(c4)OCO5)c(=O)c13)OC(C)(C)C=C2 [methyl robustone, reference compound] gave a ΔΨm [1, 4] of 0.715, an ROS (reactive oxygen species; [4]) of −0.347 and a GE-HTS (OXPHOS gene expression; [4]) of 0.033. The nucOX (nuOXPHOS transcripts; [4]) was 0.075, the mitoOX (mtOXPHOS transcripts; [4]) was −0.063 and the cyt c (cytochrome c; [4]) was 0.373. For the same compound, the Viability (C2C12 myotubes; [4]) was 0.848 and the MTT [2, 4] was −0.344.

Compound COc1cc([C@@H]2c3cc4c(cc3[C@@H](O[C@@H]3O[C@@H]5CO[C@@H](C)O[C@H]5[C@H](O)[C@H]3O)[C@H]3COC(=O)[C@H]23)OCO4)cc(OC)c1O [etoposide] has a ΔΨm [1, 5] of 0.050, an ROS (reactive oxygen species; [5]) of −1.736 and a GE-HTS (OXPHOS gene expression; [5]) of 0.725. The nucOX (nuOXPHOS transcripts; [5]) was 0.355, the mitoOX (mtOXPHOS transcripts; [5]) was 1.373 and the cyt c (cytochrome c; [5]) was −0.491. For the same compound, the Viability (C2C12 myotubes; [5]) was −1.541 and the MTT [2, 5] was −2.352.

For C#CCCCCCCCCCCCC(O)CC(O)CO (centres unmarked) [avocadyne], the ΔΨm [1, 5] was −0.029, the ΔΨm [1, 4] was −0.266 and the ROS (reactive oxygen species; [5]) was 0.611. For the same compound, the ROS (reactive oxygen species; [4]) was 0.322, the GE-HTS (OXPHOS gene expression; [5]) was −1.062 and the GE-HTS (OXPHOS gene expression; [4]) was 0.405. For the same compound, the nucOX (nuOXPHOS transcripts; [5]) was −1.019, the nucOX (nuOXPHOS transcripts; [4]) was 0.457 and the mitoOX (mtOXPHOS transcripts; [5]) was −0.897. The mitoOX (mtOXPHOS transcripts; [4]) was 0.242, the cyt c (cytochrome c; [5]) was −0.049 and the cyt c (cytochrome c; [4]) was 0.738. The Viability (C2C12 myotubes; [5]) was −0.546, the Viability (C2C12 myotubes; [4]) was 0.816 and the MTT [2, 5] was −0.646. It also gave an MTT [2, 4] of −0.369.

With Cc1cc(=O)c2c(O)c(C)c(O)cc2o1 [eugenitol] the ΔΨm [1, 6] was −0.541, the ROS (reactive oxygen species; [6]) was 1.256 and the GE-HTS (OXPHOS gene expression; [6]) was 0.471. It also gave a nucOX (nuOXPHOS transcripts; [6]) of 0.168, a mitoOX (mtOXPHOS transcripts; [6]) of 0.962 and a cyt c (cytochrome c; [6]) of −0.041. It also gave a Viability (C2C12 myotubes; [6]) of −0.575 and an MTT [2, 6] of −1.139.

Work on C=Cc1c(C)c2cc3nc(c4c5[n-]c(cc6nc(cc1[n-]2)C(C)=C6CC)c(C)c5C(=O)[C@@H]4C(=O)OC)[C@@H](CCC(=O)O)[C@@H]3C.[Mg+2] [chlorophyllide] yielded a ΔΨm [1, 7] of −0.783, an ROS (reactive oxygen species; [7]) of 1.042 and a GE-HTS (OXPHOS gene expression; [7]) of 0.282. For the same compound, the nucOX (nuOXPHOS transcripts; [7]) was 0.303, the mitoOX (mtOXPHOS transcripts; [7]) was 0.224 and the cyt c (cytochrome c; [7]) was −1.157. For the same compound, the Viability (C2C12 myotubes; [7]) was −0.178 and the MTT [2, 7] was 0.307.

For CC(=O)OCC(=O)[C@@]1(O)CCC2C3CC[C@@H]4C[C@H](OC(C)=O)CC[C@]4(C)C3C(=O)C[C@@]21C (some centres unmarked) [tetrahydrocortisone-3,21-diacetate], the ΔΨm [1, 5] was 0.074, the ROS (reactive oxygen species; [5]) was 0.456 and the GE-HTS (OXPHOS gene expression; [5]) was −0.320. It also gave a nucOX (nuOXPHOS transcripts; [5]) of −0.558, a mitoOX (mtOXPHOS transcripts; [5]) of 0.269 and a cyt c (cytochrome c; [5]) of −0.397. It also gave a Viability (C2C12 myotubes; [5]) of −0.030 and an MTT [2, 5] of −0.664.

With CS(=O)(=O)CCCCN=C=S [erysolin] the “ΔΨm (composite Z-score)” value ([1]; Conc 20 μM) was −0.785, the “ROS (composite Z-score)” value (reactive oxygen species; Conc 20 μM) was −2.871 and the “GE-HTS (composite Z-score)” value (OXPHOS gene expression; Conc 20 μM) was −0.913. The “nucOX (composite Z-score)” value (nuOXPHOS transcripts; Conc 20 μM) was −0.850, the “mitoOX (composite Z-score)” value (mtOXPHOS transcripts; Conc 20 μM) was −0.862 and the “cyt c (composite Z-score)” value (cytochrome c; Conc 20 μM) was −1.868. For the same compound, the “Viability (composite Z-score)” value (C2C12 myotubes; Conc 20 μM) was −4.103 and the “MTT (composite Z-score)” value ([2]; Conc 20 μM) was −3.551.

Oc1cccc2cccnc12 [oxyquinoline] was tested, and the ΔΨm [1] was −0.867, the ROS (reactive oxygen species) was 0.684 and the GE-HTS (OXPHOS gene expression) was 0.534. The nucOX (nuOXPHOS transcripts) was 0.526, the mitoOX (mtOXPHOS transcripts) was 0.435 and the cyt c (cytochrome c) was −0.121. The Viability (C2C12 myotubes) was −1.140 and the MTT [2] was −0.815.

CCOC(=O)C1(O)Oc2cc(OC)cc(OC)c2C(=O)C1c1ccccc1 (centres unmarked) [2-ethoxycarbonyl-2-hydroxy-5,7-dimethoxyisoflavanone, reference compound] gave a ΔΨm [1, 6] of 0.215, an ROS (reactive oxygen species; [6]) of 0.774 and a GE-HTS (OXPHOS gene expression; [6]) of 0.280. It also gave a nucOX (nuOXPHOS transcripts; [6]) of 0.232, a mitoOX (mtOXPHOS transcripts; [6]) of 0.273 and a cyt c (cytochrome c; [6]) of 0.161. The Viability (C2C12 myotubes; [6]) was 0.511 and the MTT [2, 6] was −0.260.
